Assay [1] deals with pilocarpine-induced secretion of saliva. Kind of assay: Effect inhibiting secretion of saliva in the rat. The class given is in vivo, male THOM rats. The settings on record: iv, 2 mg/kg pilocarpine s.c., urethane anaesthesia, read-out: Inhibition of secretion of saliva (rat) ED50. On the procedure:
Secretion of saliva was induced by s.c. administration of 2 mg/kg pilocarpine. The saliva was absorbed using blotting paper, and the area covered by it was determined by planimetry every 5 minutes. The dose of the substance which reduced the volume of saliva by 50% was determined graphically.

Assay [2] deals with muscarinic receptors, cerebral cortex. Briefly: Receptor binding assay in vitro, cerebral cortex (3H-NMS displacement). The settings on record: rat cerebral cortex homogenate; 0.3 nmolar 3H-NMS, 30° C., 45 min, pH 7.4. Further details: species or system male Sprague-Dawley rats.
Method: The organ donors were male Sprague-Dawley rats with a body weight of 180-220 g. […] Finally, all the organs were processed in a potter homogeniser. […] The organ homogenates were incubated at a defined concentration of the radio-ligand and a series of concentrations of the non-radioactive test substances in Eppendorf centrifuge tubes at 30° C. The incubation lasted 45 minutes. The radioligand used was 0.3 nmolar ^3 H-N-methylscopolamine (^3 H-NMS). The incubation was stopped by addition of ice-cold buffer, followed by a vacuum filtration. The filters were washed with cold buffer, and their radioactivity was determined. This represents the total of specific and non-specific binding of ^3 H-NMS. The contribution of the non-specific binding was defined as that radioactivity which was bound in the presence of 1 micromolar quinuclidinyl benzylate. Determinations were always carried out in quadruplicate. The IC50 values of the unlabelled test substances were determined graphically.
Assay [3] deals with T1, muscarinic receptors, heart atrium (Rattus norvegicus, UniProt P10980).
T1 construct: the heart, the bronchi and the lacrimal glands were removed; from tissue; host or cells: rat heart atrium, labelled in vivo
T1 sequence (P10980 1-466): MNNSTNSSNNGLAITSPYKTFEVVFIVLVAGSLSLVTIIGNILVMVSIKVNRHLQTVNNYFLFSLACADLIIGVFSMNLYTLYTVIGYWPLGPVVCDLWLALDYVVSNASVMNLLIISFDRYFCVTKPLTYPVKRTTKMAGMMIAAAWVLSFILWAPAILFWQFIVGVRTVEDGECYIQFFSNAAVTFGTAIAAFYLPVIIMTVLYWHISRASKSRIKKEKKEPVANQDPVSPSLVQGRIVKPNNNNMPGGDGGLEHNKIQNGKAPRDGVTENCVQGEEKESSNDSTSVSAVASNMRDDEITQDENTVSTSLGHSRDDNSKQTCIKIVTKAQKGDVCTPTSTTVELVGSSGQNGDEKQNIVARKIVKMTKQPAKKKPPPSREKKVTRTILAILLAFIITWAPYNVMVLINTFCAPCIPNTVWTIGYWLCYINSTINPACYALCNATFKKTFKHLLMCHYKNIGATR
Briefly: Receptor binding assay in vivo, heart atrium. Details: species or system female rats. To be noted: iv, 0.5 h, read-out: ID50, heart atrium. On the procedure:
(§1) Female rats with a body weight of about 200 g were used for these experiments. Before the start of the experiment, the animals were anaesthetised with a dose of 1.25 g/kg urethane. The animals each received the specified dose of the test substance by i.v. injection. After 15 minutes had elapsed 113 ng/kg ^3 H-N-methylscopolamine (^3 H-NMS) were administered in the same way. After a further 15 minutes, the animals were sacrificed, and the heart, the bronchi and the lacrimal glands were removed. These organs were dissolved in Soluene R, and the radioactivity was determined. These measurements were assumed to be the total binding. […] ID50 values were determined for the individual organs from these experiments.

The test system of assay [4] is muscarinic receptors, bronchi. Kind of assay: Receptor binding assay in vivo, bronchi. Details: species or system female rats. To be noted: i.v.; inhibition of 50% of specific 3H-NMS binding; 30 min. How it is done: as §1
Assay [5] concerns the target T2, muscarinic receptors, submandibular gland (Rattus norvegicus, UniProt P08483).
T2 construct: After removal of the heart, submandibular gland and cerebral cortex; from tissue; host or cells: rat submandibular gland homogenate
Kind of assay: Receptor binding assay in vitro, submandibular gland (3H-NMS displacement). Details: species or system male Sprague-Dawley rats. To be noted: rat submandibular gland homogenate; 0.3 nmolar 3H-NMS, 30° C., 45 min, pH 7.4.

For the next assay, the target named is T3, M2 (Rattus norvegicus, UniProt P10980).
T3 construct: The bradycardia induced by stimulation of the vagus; from tissue; host or cells: living male THOM rat, heart
T3 sequence (P10980 1-466): T1 sequence (P10980 1-466)
Kind of assay: M1/M2 selectivity in the rat: M2-activity (vagal bradycardia). The format is in vivo, male THOM rats. To be noted: iv, read-out: M2-activity (rat) ED50. On the procedure: The method which was used has been described by Hammer and Giachetti (Life Sciences 31, 2991-2998 (1982)). Five minutes after intravenous injection of increasing doses of the substance, either the right vagus was electrically stimulated (frequency: 25 Hz; pulse width: 2ms; stimulus duration: 30s; number of volts: supramaximal) or 0.3 mg/kg McN-A-343 was injected intravenously into male THOM rats. The bradycardia induced by stimulation of the vagus, and the increase in blood pressure caused by McN-A-343, were determined. The dose of the substances which reduced either the vagal bradycardia (M2) or the increase in blood pressure (M1) by 50% was determined graphically.

Assay [6] concerns the target T4, muscarinic receptors of the atrium (Cavia porcellus, UniProt H0VRN8).
T4 construct: In the isolated, spontaneously beating right atrium, M reduced the heart rate; from tissue; host or cells: guinea pig isolated right atrium
T4 sequence (H0VRN8 1-466): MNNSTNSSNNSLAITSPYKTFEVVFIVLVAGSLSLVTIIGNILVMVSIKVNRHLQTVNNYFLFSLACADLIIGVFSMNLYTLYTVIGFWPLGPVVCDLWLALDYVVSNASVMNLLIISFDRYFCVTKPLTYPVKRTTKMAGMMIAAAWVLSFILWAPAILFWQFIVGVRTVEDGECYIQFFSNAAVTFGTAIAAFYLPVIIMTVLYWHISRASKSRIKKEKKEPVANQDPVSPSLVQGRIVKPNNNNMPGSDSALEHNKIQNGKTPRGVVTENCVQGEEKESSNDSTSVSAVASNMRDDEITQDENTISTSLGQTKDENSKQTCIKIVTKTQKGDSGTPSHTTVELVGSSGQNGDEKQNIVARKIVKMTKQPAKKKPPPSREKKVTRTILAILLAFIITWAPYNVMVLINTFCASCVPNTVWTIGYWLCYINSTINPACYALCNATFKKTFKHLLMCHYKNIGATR
Briefly: Dissociation constants in vitro on the spontaneously beating right atrium. The settings on record: methacholine agonist, 30 min contact, Arunlakshana and Schild, read-out: Dissociation constant KB, heart. Details: species or system guinea pig. How it is done:
(§2) Dissociation constants (KB values) were determined "in vitro" on the ileum and spontaneously beating atrium of the guinea pig. The ileum was removed and incubated in Krebs-Henseleit solution in an organ bath. Contractions were induced by increasing concentrations of methacholine (M) in such a way that it was possible to construct complete concentration-effect curves. Then M was washed out, the substance to be investigated was added and left in contact for 30 minutes, and again a concentration-effect curve with M was constructed.
Dissociation constants for the muscarinic receptors of the atrium were obtained in the same way as described above. Comparison of the dissociation constants determined in the two tissues permitted cardioselective substances to be identified.

For a further assay, the target named is T5, M1 (Rattus norvegicus, UniProt P08482).
T5 construct: from tissue; host or cells: living male THOM rat, sympathetic ganglia (site by own knowledge)
T5 sequence (P08482 1-460): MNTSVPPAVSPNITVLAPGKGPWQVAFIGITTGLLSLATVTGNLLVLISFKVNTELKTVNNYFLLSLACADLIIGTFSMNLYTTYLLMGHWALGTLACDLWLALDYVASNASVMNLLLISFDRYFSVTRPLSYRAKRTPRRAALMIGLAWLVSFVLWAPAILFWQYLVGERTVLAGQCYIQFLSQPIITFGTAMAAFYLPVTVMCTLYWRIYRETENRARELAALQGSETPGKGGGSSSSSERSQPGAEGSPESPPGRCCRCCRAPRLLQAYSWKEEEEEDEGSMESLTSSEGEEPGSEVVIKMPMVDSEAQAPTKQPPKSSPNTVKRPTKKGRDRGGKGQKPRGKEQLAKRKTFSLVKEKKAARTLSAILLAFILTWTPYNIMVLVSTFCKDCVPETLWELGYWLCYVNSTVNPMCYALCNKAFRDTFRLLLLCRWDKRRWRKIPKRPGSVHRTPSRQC
Kind of assay: M1/M2 selectivity in the rat: M1-activity (increase in blood pressure caused by McN-A-343). The settings on record: iv, read-out: M1-activity (rat) ED50. The format is in vivo, male THOM rats. On the procedure: The dose of the substances which reduced either the vagal bradycardia (M2) or the increase in blood pressure (M1) by 50% was determined graphically.

Assay [7] addresses T6, muscarinic receptors, complete heart (Rattus norvegicus, UniProt P10980).
T6 sequence (P10980 1-466): T1 sequence (P10980 1-466)
Briefly: biochemical.

Assay [8] addresses T7, muscarinic receptors, lacrimal glands (Rattus norvegicus, UniProt P08483).
T7 construct: the heart, the bronchi and the lacrimal glands were removed; from tissue; host or cells: rat lacrimal glands, labelled in vivo
Briefly: Receptor binding assay in vivo, lacrimal gland. Further details: species or system female rats. The settings on record: iv, 0.5 h, read-out: ID50, lacrimal gland. On the procedure:
as §1

Assay [9] has as its target T8, muscarinic receptors, heart ventricle (Rattus norvegicus, UniProt P10980).
T8 construct: the heart, the bronchi and the lacrimal glands were removed; from tissue; host or cells: rat heart ventricle, labelled in vivo
T8 sequence (P10980 1-466): T1 sequence (P10980 1-466)
Briefly: Receptor binding assay in vivo, heart ventricle. Further details: species or system female rats. The settings on record: iv, 0.5 h, read-out: ID50, heart ventricle. On the procedure: as §1

The test system of assay [10] is heart rate, conscious dog. Kind of assay: Effect increasing the heart rate in the conscious dog (tachycardia). To be noted: for ED50: Canis lupus familiaris, dose for increase of 50 beats/min. The class given is in vivo. How it is done: The substances were either injected intravenously or administered orally, and the heart rate was measured using a tachygraph. After a control period, increasing doses of the compound were administered in order to increase the heart rate. In each case, the next dose was administered when the effect of the preceding dose was no longer evident. The dose of a substance which brought about an increase of 50 beats/min. (ED50) was determined graphically. Each substance was examined on 3 to 5 dogs.

Assay [11] concerns the target T9, muscarinic receptors, ileum (Cavia porcellus, UniProt H0W1Z3).
T9 construct: The ileum was removed and incubated in Krebs-Henseleit solution in an organ bath; from tissue; host or cells: guinea pig isolated ileum
Kind of assay: Dissociation constants in vitro on the ileum. Details: species or system guinea pig. To be noted: ileum contractions; methacholine agonist; 30 min contact; Arunlakshana and Schild; read-out: Dissociation constant KB, ileum. How it is done: as §2

What is called IC50 is the concentration that gives 50% inhibition.

SMILES strings stand for the structures. Like-named read-outs stand apart in the source and are kept apart here.

T7 sequence (P08483 whole entry): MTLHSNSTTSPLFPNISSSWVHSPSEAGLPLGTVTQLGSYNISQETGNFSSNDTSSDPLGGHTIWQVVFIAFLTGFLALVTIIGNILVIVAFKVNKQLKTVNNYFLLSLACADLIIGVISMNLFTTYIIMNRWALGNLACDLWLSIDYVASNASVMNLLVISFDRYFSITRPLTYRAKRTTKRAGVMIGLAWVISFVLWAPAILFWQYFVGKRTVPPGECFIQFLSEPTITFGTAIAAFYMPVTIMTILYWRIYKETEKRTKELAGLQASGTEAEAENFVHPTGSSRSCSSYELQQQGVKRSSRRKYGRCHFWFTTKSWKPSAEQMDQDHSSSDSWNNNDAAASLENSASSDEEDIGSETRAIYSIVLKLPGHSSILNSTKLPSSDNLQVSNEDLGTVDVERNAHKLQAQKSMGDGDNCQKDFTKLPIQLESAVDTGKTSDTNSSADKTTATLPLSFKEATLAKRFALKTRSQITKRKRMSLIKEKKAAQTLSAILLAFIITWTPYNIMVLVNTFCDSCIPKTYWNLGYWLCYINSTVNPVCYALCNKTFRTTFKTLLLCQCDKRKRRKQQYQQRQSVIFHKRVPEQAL
T2 sequence (P08483 whole entry): as above
T9 sequence (H0W1Z3 1-590): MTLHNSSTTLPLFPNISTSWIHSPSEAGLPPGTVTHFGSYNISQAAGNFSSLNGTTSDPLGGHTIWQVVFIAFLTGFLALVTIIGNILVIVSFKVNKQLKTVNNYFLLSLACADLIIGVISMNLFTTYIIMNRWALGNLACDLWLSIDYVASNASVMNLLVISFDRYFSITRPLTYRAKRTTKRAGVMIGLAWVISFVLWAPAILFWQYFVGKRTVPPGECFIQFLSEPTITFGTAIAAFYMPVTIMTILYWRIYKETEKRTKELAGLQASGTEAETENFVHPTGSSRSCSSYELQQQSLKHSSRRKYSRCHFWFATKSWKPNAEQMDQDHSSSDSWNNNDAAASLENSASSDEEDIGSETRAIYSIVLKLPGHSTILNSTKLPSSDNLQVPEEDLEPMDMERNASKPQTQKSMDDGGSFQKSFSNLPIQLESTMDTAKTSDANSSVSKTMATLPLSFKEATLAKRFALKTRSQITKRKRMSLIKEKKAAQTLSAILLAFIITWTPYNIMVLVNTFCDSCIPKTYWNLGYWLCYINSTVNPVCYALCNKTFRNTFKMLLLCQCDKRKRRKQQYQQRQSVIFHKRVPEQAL

Consider `CCN(CC)CC1CCCCN1CC(=O)N1c2cc(Cl)ccc2C(=O)Nc2cccnc21` (stereo not drawn) [Substance A, 9-chloro-11-[[2-[(diethylamino)methyl]-1-piperidinyl]-acetyl]-5,11-dihydro-6H-pyrido[2,3-b]-[1,4]benzodiazepin-6-one], for which the ED50 in assay [1] was 7.57 mg/kg; in [3], 0.6 mg/kg; on M2 (50% reduction of vagal bradycardia), 0.077 mg/kg; at M1 (50% reduction of McN-A-343 (0.3 mg/kg i.v.) blood pressure increase), 1.48 mg/kg; in assay [8], 30 mg/kg; in assay [9], 0.3 mg/kg. Besides, the ED50 in assay [10] (intravenous, read-out: Tachycardia (dog) ED50 intravenous) was found to be 0.17 mg/kg; in [10] (oral, read-out: Tachycardia (dog) ED50 oral), 0.38 mg/kg. Also, the figures for the IC50 in [2], in assay [5] and in assay [7] were 500 nM, 1500 nM and 50 nM, respectively. Besides, in assay [4], the “ID50, bronchi” value is 8.0 mg/kg. Also, the Kb in [6] was 14.8 nM; in [11], 513 nM. The “Ratio ED50 p.o./ED50 i.v.” value in assay [10] (tachycardia, conscious dog) was determined as 2.
On to `CCN(CC)CC1CCCCN1CC(=O)N1c2ccccc2C(=O)Nc2cccnc21` (stereo not drawn) [Substance B, 11-[[2-[(diethylamino)methyl]-1-piperidinyl]acetyl]-5,11-dihydro-6H-pyrido[2,3-b][1,4]benzodiazepin-6-one], for which the ED50 in [8] turned out to be 30 mg/kg.
Consider `CN1CCN(CC(=O)N2c3ccccc3C(=O)Nc3cccnc32)CC1` [Substance C, 5,11-dihydro-11-[(4-methyl-1-piperazinyl)acetyl]-6H-pyrido[2,3-b][1,4]benzodiazepin-6one], for which the ED50 in assay [1] worked out at 0.084 mg/kg.
Turning to `CN1[C@@H]2CC[C@H]1CC(OC(=O)C(CO)c1ccccc1)C2` (stereo partly drawn) [Substance D, atropine, reference compound], the ED50 in [3] amounted to 0.08 mg/kg; on M2, 0.004 mg/kg; on M1, 0.016 mg/kg; in [8] it was 0.2 mg/kg; in assay [9], 0.03 mg/kg. Besides, the “ID50, bronchi” value in assay [4] was found to be 0.1 mg/kg. For the same molecule, in [6], the Kb was 1.41 nM.
